Key:
[1] = system: Jurkat human T lymphocyte cell line; test: Apoptosis assay (Annexin V) of compounds incubated with human serum
Method: Compounds of formula I, as shown in Table 1 above and in the Examples, were assayed for their capacity to induce apoptosis in cells from the Jurkat human T lymphocyte cell line, after incubation with pooled human serum for varying periods of time at 37° C. (see Example 19). An ester prodrug, triptolide-14-succinate, designated PG490-88, was included for comparison. The extent of conversion to triptolide after such incubation was also independently determined by HPLC analysis.
The ED50 values (column 3) are calculated directly from the data in each experiment, and the % conversion values (column 4) are calculated as percent of the ED50 value produced by triptolide, designated PG490, incubated in the same plasma (i.e. in the same experiment).
A. Incubation of compounds with human serum. Pooled human serum was stored in aliquots at −80° C. Test compounds were added at 20 mM to thawed human serum in 1.5 ml microfuge tubes and incubated at 37° C. in a water bath for varying periods of time. The test samples were placed on ice until dilution for the bioassay. Controls consisted of the compounds incubated in complete tissue culture medium (RPMI 1640 medium plus 5% heat-inactivated fetal calf serum, 1% HEPES, 1% pen/strep, 1% glutamine) rather than human serum.
B. Apoptosis assay of compounds incubated with human serum. Test samples were diluted to 1 mM in complete tissue culture medium. Aliquots were placed in microculture plates and serial dilutions were prepared so that the final concentration would encompass the range of 1 to 10,000 nM with half-log increments. Cells from an exponentially expanding culture of the Jurkat human T lymphocyte cell line (#TIB-152 obtained from American Type Culture Collection, Manassas, Va.) were harvested, washed once by centrifugation and dilution in complete tissue culture medium, and diluted to a concentration of 1×10^6 cells/ml. A volume of 100 μl of Jurkat cells (1×10^5 cells) was added to wells containing 100 μl of the diluted compounds, and the plates were incubated at 37° C. in a 5% CO2 incubator. After 24 hours, the plates were centrifuged to pellet the cells, and the cells were washed twice with 2% heat-inactivated fetal calf serum in PBS. To each well, 500 ul of binding buffer was added according to the Annexin V assay procedure (BioVision, Inc., Mountain View, Calif.). Next, 5 μl of the fluorescein isothiocyanate (FITC) conjugate of Annexin V (BioVision, Inc.) was added to each well, followed by 5 minutes of incubation in the dark. In some assays, propidium iodide (BioVision, Inc.) was added at this stage to check for necrotic cells. The contents of the wells were individually transferred into test tubes, and apoptosis was analyzed using a FACSCalibur flow cytometer (BD Immunocytometry Systems, San Jose, Calif.). Cells positive for Annexin V binding were considered to be apoptotic, and the data were calculated as percent apoptotic cells.
C. Comparison of bioactivities after incubation of compounds in human serum. The data were plotted as the concentration of compound incubated in serum versus percent apoptotic cells. The concentration of compound inducing 50% apoptosis (ED50) was calculated from these dose response curves. […] This percentage conversion was used to compare the bioactivity of various compounds after incubation in human serum.

[2] = system: IL-2 production in Jurkat human T lymphocyte cells; test: IL-2 production assay for activity of compounds incubated with human serum; details: for bioactivity in IL-2 inhibition assays (in words): FIGS. 4-5; for IL-2 pg/mL at given concentration (nM): Table 8, Jurkat cells
Method: Several compounds of formula I were analyzed for their capacity to inhibit IL-2 production in Jurkat human T lymphocyte cells, after incubation with pooled human serum for 48 hours at 37° C. (see Example 20). An ester prodrug, triptolide-14-succinate, designated PG490-88, was included for comparison.
The IC50 values (column 1) are calculated directly from the data in each experiment. The % conversion values (column 2) are calculated as the percent of the IC50 value produced by triptolide, designated PG490, incubated in the same plasma (i.e. in the same experiment).
A. IL-2 production assay for activity of compounds incubated with human serum. Test samples were diluted to 1 mM in complete tissue culture medium. […] Cells from an exponentially expanding culture of the Jurkat human T lymphocyte cell line (#TIB-152 obtained from American Type Culture Collection, Manassas, Va.) were harvested, washed once by centrifugation and dilution in complete tissue culture medium, and diluted to a concentration of 2×10^6 cells/ml. A volume of 50 μl of Jurkat cells (1×10^5 cells) was added to wells containing 100 μl of the diluted compounds, 50 μl of PMA (10 ng/ml) was added to each well, and the plates were incubated at 37° C. in a 5% CO2 incubator. After 24 hours, the plates were centrifuged to pellet the cells, 150 μl of supernatant was removed from each well, and the samples were stored at −20° C. The stored supernatants were analyzed for human IL-2 concentration using the Luminex 100 (Luminex Corporation, Austin, Tex.), Luminex microspheres coupled with anti-IL-2 capture antibody, and fluorochrome-coupled anti-IL-2 detection antibody. The data were expressed as ng/ml of IL-2.
B. Comparison of bioactivities after incubation of compounds in human serum. The data were plotted as the concentration of compound incubated in serum versus IL-2 concentration. The concentration of compound inducing a 50% decrease in the IL-2 concentration (IC50) was calculated from these dose response curves. […] This percentage conversion was used to compare the bioactivity of various compounds after incubation in human serum.

[3] = Table 4, serum, 48 hr, 10000 nM

## CC(C)[C@]12O[C@H]1[C@@H]1O[C@]13[C@]1(O[C@H]1C[C@H]1C4=C(CC[C@@]13C)C(=O)OC4)[C@@H]2OC(=O)CCC(N)C(=O)O (stereo partly shown) [PG661, 14-isoglutamyl ester, reference compound]
[1]; Table 3, human serum, 0 hr, 10000 nM
  % apoptotic cells at given concentration (nM): 7.9%
[1]; Table 3, human serum, 48 hr, 1 nM
  % apoptotic cells at given concentration (nM): 11.3%
[1]; Table 3, human serum, 48 hr, 3 nM
  % apoptotic cells at given concentration (nM): 10.4%
[1]; Table 3, human serum, 48 hr, 10 nM
  % apoptotic cells at given concentration (nM): 10.3%
[1]; Table 3, human serum, 48 hr, 30 nM
  % apoptotic cells at given concentration (nM): 10.5%
[1]; Table 3, human serum, 48 hr, 100 nM
  % apoptotic cells at given concentration (nM): 10.3%
[1]; Table 3, human serum, 48 hr, 300 nM
  % apoptotic cells at given concentration (nM): 10.5%
[1]; Table 3, human serum, 48 hr, 1000 nM
  % apoptotic cells at given concentration (nM): 10.2%
[1]; Table 3, human serum, 48 hr, 3000 nM
  % apoptotic cells at given concentration (nM): 9.7%
[1]; Table 3, human serum, 48 hr, 10000 nM
  % apoptotic cells at given concentration (nM): 9.4%
[1]; Table 3, medium only, 10000 nM
  % apoptotic cells at given concentration (nM): 13.6%
[1]; Table 4, medium, 10000 nM
  % apoptotic cells at given concentration (nM): 7.3%
[1]; Table 4, serum, 0 hr, 10000 nM
  % apoptotic cells at given concentration (nM): 5.2%
[1]; Table 4, serum, 48 hr, 0.03 nM
  % apoptotic cells at given concentration (nM): 38.8%
[1]; Table 4, serum, 48 hr, 0.1 nM
  % apoptotic cells at given concentration (nM): 38.2%
[1]; Table 4, serum, 48 hr, 0.3 nM
  % apoptotic cells at given concentration (nM): 39.0%
[1]; Table 4, serum, 48 hr, 1 nM
  % apoptotic cells at given concentration (nM): 39.2%
[1]; Table 4, serum, 48 hr, 3 nM
  % apoptotic cells at given concentration (nM): 39.1%
[1]; Table 4, serum, 48 hr, 10 nM
  % apoptotic cells at given concentration (nM): 39.2%
[1]; Table 4, serum, 48 hr, 30 nM
  % apoptotic cells at given concentration (nM): 40.3%
[1]; Table 4, serum, 48 hr, 100 nM
  % apoptotic cells at given concentration (nM): 38.6%
[1]; Table 4, serum, 48 hr, 300 nM
  % apoptotic cells at given concentration (nM): 36.3%
[1]; Table 4, serum, 48 hr, 1000 nM
  % apoptotic cells at given concentration (nM): 28.7%
[1]; Table 4, serum, 48 hr, 3000 nM
  % apoptotic cells at given concentration (nM): 28.2%
[1]; [3]
  % apoptotic cells at given concentration (nM): 5.2%
[1]; after 48 hr. incubation in human serum
  apoptotic activity (in words): essentially no activity
[2]
  bioactivity in IL-2 inhibition assays (in words): little or no activity
[2]; 0.0001 nM
  IL-2 pg/mL at given concentration (nM): 82.0 pg/mL
[2]; 0.001 nM
  IL-2 pg/mL at given concentration (nM): 102.1 pg/mL
[2]; 0.01 nM
  IL-2 pg/mL at given concentration (nM): 123.6 pg/mL
[2]; 0.1 nM
  IL-2 pg/mL at given concentration (nM): 120.7 pg/mL
[2]; 1 nM
  IL-2 pg/mL at given concentration (nM): 98.2 pg/mL
[2]; 10 nM
  IL-2 pg/mL at given concentration (nM): 110.3 pg/mL
[2]; 100 nM
  IL-2 pg/mL at given concentration (nM): 103.6 pg/mL
[2]; 1000 nM
  IL-2 pg/mL at given concentration (nM): 74.4 pg/mL
[2]; 10000 nM
  IL-2 pg/mL at given concentration (nM): 68.7 pg/mL

## CC(C)[C@]12O[C@H]1[C@@H]1O[C@]13[C@]1(O[C@H]1C[C@H]1C4=C(CC[C@@]13C)C(=O)OC4)[C@@H]2OC(=O)Nc1ccccc1 [PG671, Triptolide 14-Phenyl Carbamate]
[1]
  conversion in human serum (in words): less readily converted
[1]; Table 4, medium, 10000 nM
  % apoptotic cells at given concentration (nM): 13.7%
[1]; Table 4, serum, 0 hr, 10000 nM
  % apoptotic cells at given concentration (nM): 10.2%
[1]; Table 4, serum, 48 hr, 0.03 nM
  % apoptotic cells at given concentration (nM): 42.5%
[1]; Table 4, serum, 48 hr, 0.1 nM
  % apoptotic cells at given concentration (nM): 43.3%
[1]; Table 4, serum, 48 hr, 0.3 nM
  % apoptotic cells at given concentration (nM): 43.9%
[1]; Table 4, serum, 48 hr, 1 nM
  % apoptotic cells at given concentration (nM): 44.2%
[1]; Table 4, serum, 48 hr, 3 nM
  % apoptotic cells at given concentration (nM): 43.2%
[1]; Table 4, serum, 48 hr, 10 nM
  % apoptotic cells at given concentration (nM): 42.4%
[1]; Table 4, serum, 48 hr, 30 nM
  % apoptotic cells at given concentration (nM): 44.7%
[1]; Table 4, serum, 48 hr, 100 nM
  % apoptotic cells at given concentration (nM): 43.5%
[1]; Table 4, serum, 48 hr, 300 nM
  % apoptotic cells at given concentration (nM): 43.1%
[1]; Table 4, serum, 48 hr, 1000 nM
  % apoptotic cells at given concentration (nM): 43.0%
[1]; Table 4, serum, 48 hr, 3000 nM
  % apoptotic cells at given concentration (nM): 43.3%
[1]; [3]
  % apoptotic cells at given concentration (nM): 15.4%
[2]
  bioactivity in IL-2 inhibition assays (in words): some level of bioactivity
[2]; 0.0001 nM
  IL-2 pg/mL at given concentration (nM): 96.4 pg/mL
[2]; 0.001 nM
  IL-2 pg/mL at given concentration (nM): 102.7 pg/mL
[2]; 0.01 nM
  IL-2 pg/mL at given concentration (nM): 99.7 pg/mL
[2]; 0.1 nM
  IL-2 pg/mL at given concentration (nM): 114.7 pg/mL
[2]; 1 nM
  IL-2 pg/mL at given concentration (nM): 106.1 pg/mL
[2]; 10 nM
  IL-2 pg/mL at given concentration (nM): 90.7 pg/mL
[2]; 100 nM
  IL-2 pg/mL at given concentration (nM): 77.9 pg/mL
[2]; 1000 nM
  IL-2 pg/mL at given concentration (nM): 48.7 pg/mL
[2]; 10000 nM
  IL-2 pg/mL at given concentration (nM): 8.8 pg/mL
